Assay results reported in patent US12325697B2 (Nimbus Clio, Inc., priority 2021, dated 2025).

What was measured:
[1] = target: Recombinant human Cbl-b (aa 36-427) (Homo sapiens (Human), UniProt Q13191); assay: Cbl-b Biochemical Assay (TR-FRET); settings: read-out: TR-FRET hCbl-b IC50
Procedure, shortened: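 IC50 from 4-parameter fit of % inhibition (DMSO max, reference-inhibitor min), duplicate ten-point series. Compound preincubated with 6 nM Cbl-b, then Src-Zap70 (1-2.5 nM)/0.5 mM ATP reaction 60 min RT; EDTA quench with labelled UBE2D2-Ub and streptavidin-terbium, 60 min, HTRF at 520 nm.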

[2] = system: Jurkat (clone E6-1) cells, NFAT luciferase reporter; assay: Jurkat Reporter Assay (NFAT Luciferase); type: cell-based; settings: Homo sapiens, anti-CD3 stimulation, 6 hr, read-out: Jurkat NFAT EC50
[3] = system: Phospho-Zap70 (Y-319) in Jurkat wild-type (clone E6-1) cells; assay: Jurkat pZAP70 HTRF Assay; type: cell-based; settings: Homo sapiens, anti-CD3 5 μg/ml, 3 hr, read-out: ZAP70 Jurkat EC50

Recombinant human Cbl-b (aa 36-427), sequence (Q13191 36-427): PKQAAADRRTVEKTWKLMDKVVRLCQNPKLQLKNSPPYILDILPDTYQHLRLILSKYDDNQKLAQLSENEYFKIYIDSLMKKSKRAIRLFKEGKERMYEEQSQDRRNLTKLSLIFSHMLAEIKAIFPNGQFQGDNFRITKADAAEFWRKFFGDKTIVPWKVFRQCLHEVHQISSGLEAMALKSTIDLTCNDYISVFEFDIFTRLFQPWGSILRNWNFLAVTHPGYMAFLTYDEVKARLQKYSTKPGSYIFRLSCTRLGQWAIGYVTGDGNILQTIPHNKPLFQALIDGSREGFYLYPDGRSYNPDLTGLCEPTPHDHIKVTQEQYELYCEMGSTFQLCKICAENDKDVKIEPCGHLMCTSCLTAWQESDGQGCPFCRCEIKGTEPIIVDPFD

## CCNc1cc(-c2ccc(C#N)cc2-c2nncn2C)cc(N2Cc3c(cc(CN[C@@H]4CCC[C@@H]4O)cc3C(F)(F)F)C2=O)n1 [AEL-2, 4-[2-(Ethylamino)-6-[6-({[(1R,2S)-2-hydroxycyclopentyl]amino}methyl)-1-oxo-4-(trifluoromethyl)-3H-isoindol-2-yl]pyridin-4-yl]-3-(4-methyl-1,2,4-triazol-3-yl) benzonitrile]
[1]
  IC50: ≤ 200 nM
[2]
  EC50: < 200 nM
[3]
  EC50: < 200 nM

## CNCc1cc2c(c(C(F)(F)F)c1)CN(c1cc(-c3ccc(C#N)cc3-c3nncn3C)cc(C3CC3)n1)C2=O [AGZ-1, 4-(2-Cyclopropyl-6-{6-[(methylamino)methyl]-1-oxo-4-(trifluoromethyl)-3H-isoindol-2-yl}pyridin-4-yl)-3-(4-methyl-1,2,4-triazol-3-yl)benzonitrile]
[1]
  IC50: ≤ 200 nM
[2]
  EC50: < 200 nM
[3]
  EC50: < 200 nM

## CCNc1cc(-c2ccc(C#N)cc2-c2nncn2C)cc(N2Cc3c(cc(CN4CCC[C@H](C)C4)cc3C(F)(F)F)C2=O)n1 [ADT-2, 4-[2-(Ethylamino)-6-(6-{[(3S)-3-methylpiperidin-1-yl]methyl}-1-oxo-4-(trifluoromethyl)-3H-isoindol-2-yl)pyridin-4-yl]-3-(4-methyl-1,2,4-triazol-3-yl)benzonitrile]
[1]
  IC50: ≤ 200 nM
[2]
  EC50: < 200 nM
[3]
  EC50: < 200 nM

## Cn1cnnc1-c1cc(F)ccc1-c1cc(C2CC2)nc(N2Cc3c(cc(COCC4(O)CCC4)cc3C(F)(F)F)C2=O)c1 [AFL-2, 2-{6-Cyclopropyl-4-[4-fluoro-2-(4-methyl-1,2,4-triazol-3-yl)phenyl]pyridin-2-yl}-6-{[(1-hydroxycyclobutyl)methoxy]methyl}-4-(trifluoromethyl)-3H-isoindol-1-one]
[1]
  IC50: ≤ 200 nM
[2]
  EC50: < 200 nM
[3]
  EC50: < 200 nM

## Cn1cnnc1-c1cc(F)ccc1-c1cccc(N2Cc3ccc(CNCC4(O)CCC4)cc3C2=O)c1 [AHA-2, 2-(4′-Fluoro-2′-(4-methyl-4H-1,2,4-triazol-3-yl)-[1,1′-biphenyl]-3-yl)-6-((((1-hydroxycyclobutyl)methyl)amino)methyl) isoindolin-1-one]
[1]
  IC50: ≤ 200 nM
[2]
  EC50: < 200 nM
[3]
  EC50: 200 to 1000 nM

## CCNc1cc(-c2ccc(C#N)cc2-c2nncn2C)cc(N2Cc3c(cc(CO)cc3C(F)(F)F)C2=O)n1 [ADX-2, 4-[2-(Ethylamino)-6-[6-(hydroxymethyl)-1-oxo-4-(trifluoromethyl)-3H-isoindol-2-yl]pyridin-4-yl]-3-(4-methyl-1,2,4-triazol-3-yl) benzonitrile]
[1]
  IC50: ≤ 200 nM
[2]
  EC50: < 200 nM
[3]
  EC50: 200 to 1000 nM

## Cn1cnnc1-c1ccccc1-c1cccc(N2Cc3c(cc(CNCC4(O)CCC4)cc3C(F)(F)F)C2=O)c1 [AW-2, 6-((((1-Hydroxycyclobutyl)methyl)amino)methyl)-2-(2′-(4-methyl-4H-1,2,4-triazol-3-yl)-[1,1′-biphenyl]-3-yl)-4-(trifluoromethyl)isoindolin-1-one]
[1]
  IC50: ≤ 200 nM
[2]
  EC50: < 200 nM
[3]
  EC50: < 200 nM

## CCOc1cc(-c2ccc(F)cc2-c2nncn2C)cc(N2Cc3c(cc(CNCC4(O)CCC4)cc3C(F)(F)F)C2=O)n1 [AGQ-2, 2-{6-Ethoxy-4-[4-fluoro-2-(4-methyl-1,2,4-triazol-3-yl)phenyl]pyridin-2-yl}-6-({[(1-hydroxycyclobutyl)methyl]amino}methyl)-4-(trifluoromethyl)-3H-isoindol-1-one]
[1]
  IC50: ≤ 200 nM
[2]
  EC50: < 200 nM
[3]
  EC50: 200 to 1000 nM

## Cn1cnnc1-c1ccccc1-c1cccc(N2Cc3c(cc(CNCC(C)(C)O)cc3C(F)(F)F)C2=O)c1 [AZ-2, 6-(((2-Hydroxy-2-methylpropyl)amino)methyl)-2-(2′-(4-methyl-4H-1,2,4-triazol-3-yl)-[1,1′-biphenyl]-3-yl)-4-(trifluoromethyl)isoindolin-1-one]
[1]
  IC50: ≤ 200 nM
[2]
  EC50: < 200 nM
[3]
  EC50: < 200 nM

## CCOc1cc(-c2ccc(C#N)cc2-c2nncn2C)cc(N2Cc3c(cc(CO)cc3C(F)(F)F)C2=O)n1 [AEW-2, 4-{2-Ethoxy-6-[6-(hydroxymethyl)-1-oxo-4-(trifluoromethyl)-3H-isoindol-2-yl]pyridin-4-yl}-3-(4-methyl-1,2,4-triazol-3-yl)benzonitrile]
[1]
  IC50: ≤ 200 nM
[2]
  EC50: < 200 nM
[3]
  EC50: 200 to 1000 nM

## Cn1cnnc1-c1cc(F)ccc1-c1cc(C2CC2)nc(N2Cc3c(cc(COCC4(N)CCC4)cc3C(F)(F)F)C2=O)c1 [AGG-2, 6-{1[(1-Aminocyclobutyl)methoxy]methyl}-2-{6-cyclopropyl-4-[4-fluoro-2-(4-methyl-1,2,4-triazol-3-yl)phenyl]pyridin-2-yl}-4-(trifluoromethyl)-3H-isoindol-1-one]
[1]
  IC50: ≤ 200 nM
[2]
  EC50: < 200 nM
[3]
  EC50: < 200 nM

## CCNc1cc(-c2ccc(C#N)cc2-c2nncn2C)cc(N2Cc3c(cc(CNC4CCCC4=O)cc3C(F)(F)F)C2=O)n1 (stereo not drawn) [AGC-5, 4-[2-(Ethylamino)-6-(1-oxo-6-{[(2-oxocyclopentyl)amino]methyl}-4-(trifluoromethyl)-3H-isoindol-2-yl)pyridin-4-yl]-3-(4-methyl-1,2,4-triazol-3-yl)benzonitrile]
[1]
  IC50: ≤ 200 nM
[2]
  EC50: < 200 nM
[3]
  EC50: 200 to 1000 nM

## Cn1cnnc1-c1cc(C#N)ccc1-c1cc(C2CC2)nc(N2Cc3ccc(CNCCOC(F)(F)F)cc3C2=O)c1 [AGT-3, 4-{2-Cyclopropyl-6-[1-oxo-6-({[2-(trifluoromethoxy)ethyl]amino}methyl)-3H-isoindol-2-yl]pyridin-4-yl}-3-(4-methyl-1,2,4-triazol-3-yl)benzonitrile]
[1]
  IC50: ≤ 200 nM
[2]
  EC50: < 200 nM
[3]
  EC50: < 200 nM

## CCNc1cc(-c2c(-c3nncn3C)cnn2C)cc(N2Cc3c(cc(CO[C@@H]4CCC[C@@H]4O)cc3C(F)(F)F)C2=O)n1 [ADH-1, 2-[6-(Ethylamino)-4-[2-methyl-4-(4-methyl-1,2,4-triazol-3-yl)pyrazol-3-yl]pyridin-2-yl]-6-({[(1R,2S)-2-hydroxycyclopentyl]oxy}methyl)-4-(trifluoromethyl)-3H-isoindol-1-one]
[1]
  IC50: ≤ 200 nM
[2]
  EC50: < 200 nM
[3]
  EC50: 200 to 1000 nM

## COCCNCc1cc2c(c(C(F)(F)F)c1)CN(c1cc(-c3ccc(C#N)cc3-c3nncn3C)cc(C3CC3)n1)C2=O [AEN-1, 4-[2-Cyclopropyl-6-(6-{[(2-methoxyethyl)amino]methyl}-1-oxo-4-(trifluoromethyl)-3H-isoindol-2-yl)pyridin-4-yl]-3-(4-methyl-1,2,4-triazol-3-yl)benzonitrile]
[1]
  IC50: ≤ 200 nM
[2]
  EC50: < 200 nM
[3]
  EC50: < 200 nM

## Cn1cnnc1-c1cnn(C)c1-c1cc(C2CC2)nc(N2Cc3ccc(CNCC4(O)CCCC4)cc3C2=O)c1 [AFQ-3, 2-{6-Cyclopropyl-4-[2-methyl-4-(4-methyl-1,2,4-triazol-3-yl)pyrazol-3-yl]pyridin-2-yl}-6-({[(1-hydroxycyclopentyl)methyl]amino}methyl)-3H-isoindol-1-one]
[1]
  IC50: ≤ 200 nM
[2]
  EC50: < 200 nM
[3]
  EC50: < 200 nM

## Cn1cnnc1-c1ccccc1-c1cc(C2CC2)nc(N2Cc3ccc(CNCC4(O)CCC4)cc3C2=O)c1 [AEH-1, 2-{6-Cyclopropyl-4-[2-(4-methyl-1,2,4-triazol-3-yl)phenyl]pyridin-2-yl}-6-({[(1-hydroxycyclobutyl)methyl]amino}methyl)-3H-isoindol-1-one]
[1]
  IC50: ≤ 200 nM
[2]
  EC50: < 200 nM
[3]
  EC50: < 200 nM
